Laboratory results from patent US10030016B2 (Sunesis Pharmaceuticals, Inc., priority 2009, dated 2018).
Where a name gives a salt, the structure may show the parent alone. Read-outs that look alike come from different tables or passages of the source.

How the values were obtained:
[1] = system: phospho-akt (Thr308) in PC-3 cells; experiment: Inhibition of phospho-akt (Thr308) in PC-3 cells, MSD phospho-akt 308 ELISA kit; assay type: cell-based; conditions: Homo sapiens, 2 hours, no serum, read-out: EC50
In short: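 Serum-free 2 h compound exposure of overnight-seeded PC-3 cells, threefold dilution series; lysates analysed on blocked MSD plates (3% BSA) for Thr308-phosphorylated Akt, normalised between DMSO and 5 μM wortmannin wells.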

[2] = target: PDK1 (Homo sapiens (Human), UniProt O15530); experiment: PDK1 kinase assay (coupled PDK1/AKT/FAM-crosstide assay, IMAP fluorescence polarization); assay type: biochemical
PDK1, sequence (O15530 51-359): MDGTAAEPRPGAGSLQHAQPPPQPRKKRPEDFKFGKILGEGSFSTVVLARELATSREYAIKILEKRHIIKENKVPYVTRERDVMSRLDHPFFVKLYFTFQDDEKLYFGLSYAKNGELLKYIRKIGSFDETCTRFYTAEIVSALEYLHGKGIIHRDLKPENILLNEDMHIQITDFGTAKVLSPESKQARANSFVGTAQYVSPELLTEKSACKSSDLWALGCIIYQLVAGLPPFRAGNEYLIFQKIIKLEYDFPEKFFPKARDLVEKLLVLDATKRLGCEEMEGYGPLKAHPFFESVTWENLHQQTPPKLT
In short: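 PDK1 activity is measured indirectly through activation of a PIFtide-fused AKT2 construct that phosphorylates FAM-crosstide (100 nM). The reaction uses 0.75 nM PDK1, 40 μM ATP, 30 min, 25° C, with IMAP polarization detection.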

[3] = inhibition of P308 Akt in PC-3 cells using MSD
[4] = inhibition of P308 Akt in PC-3 cells, MSD
[5] = inhibition of phospo-PDK1 in vitro

`C[C@H](NC(=O)c1cccnc1NCc1ccc(-c2cnc3[nH]ncc3c2)cc1)c1ccc(F)cc1` [Example 392, N-[(S)-1-(4-Fluoro-phenyl)-ethyl]-2-[4-(1H-pyrazolo [3,4-b]pyridin-5-yl)-benzylamino]-nicotinamide] was tested, and the EC50 [1, 3] was 1000 to 10000 nM and the IC50 ([2]; inhibition of PDK1 in vitro) was < 100 nM.
In the case of `C[C@H](NC(=O)c1cccnc1NCc1ccc(-c2ccc3ncc(N(C)C)nc3c2)s1)c1ccc(F)c(F)c1` [Example 4.27, (S)-N-(1-(3,4-difluoro-phenyl)ethyl)-2-(((5-(3-(dimethylamino)quinoxalin-6-yl)thiophen-2-yl)methyl)amino)nicotinamide], the EC50 [1, 4] is reported as > 10000 nM and the IC50 [2, 5] is reported as 1000 to 5000 nM.
With `CC(C)Oc1cc(CNc2ncccc2C(=O)NC2CC2)cc(-c2c[nH]c3ncc(C(=O)NC4CC4)cc23)c1` [Example 4.1.7, N-cyclopropyl-3-[3-({[3-(cyclopropylcarbamoyl)pyridin-2-yl]amino}methyl)-5-(propan-2-yloxy)phenyl]-1H-pyrrolo[2,3-b] pyridine-5-carboxamide] the EC50 [1, 4] was 1000 to 10000 nM and the IC50 [2, 5] was 1000 to 5000 nM.
In the case of `O=C(NCc1ccc(F)c(F)c1)c1cc(C(F)(F)F)cnc1NCc1ccc(-c2cnc3[nH]c(=O)[nH]c3c2)cc1` [Example 123, N-(3,4-difluorobenzyl)-2-(4-(2-oxo-2,3-dihydro-1H-imidazo[4,5-b]pyridin-6-yl)benzylamino)-5-(trifluoromethyl) nicotinamide], the EC50 [1, 3] is reported as < 1000 nM and the IC50 ([2]; inhibition of PDK1 in vitro) is reported as < 100 nM.
With `CC(C)Oc1cc(CNc2ncccc2C(=O)NCc2ccc(F)c(F)c2)cc(-c2c[nH]c3ncc(C(=O)NC4CC4)cc23)c1` [Example 4.1.3, N-cyclopropyl-3-{3-[({3-[(3,4-difluoro-benzyl)carbamoyl]pyridin-2-yl}amino)methyl]-5-(propan-2-yloxy)phenyl}-1H-pyrrolo[2,3-b] pyridine-5-carboxamide] the EC50 [1, 4] was < 1000 nM and the IC50 [2, 5] was < 100 nM.
With `Nc1ncc(-c2ccc(CNc3ncc(C(F)(F)F)cc3C(=O)Nc3ccc(F)cc3)cc2)nc1O[C@@H]1CCC[C@H]1N` [Example 173, 2-{4-[5-Amino-6-((1R,2R)-2-amino-cyclopentyloxy)-pyrazin-2-yl]-benzylamino}-N-(4-fluoro-phenyl)-5-trifluoromethyl-nicotinamide] the EC50 [1, 3] was < 1000 nM and the IC50 ([2]; inhibition of PDK1 in vitro) was < 100 nM.
In the case of `C[C@H](NC(=O)c1cc(C#N)cnc1NCc1ccc(-c2cnc(N)c(O[C@@H]3CCC[C@H]3N)n2)cc1)c1ccc(F)cc1` [Example 171, 2-{4-[5-Amino-6-((1R,2R)-2-amino-cyclopentyloxy)-pyrazin-2-yl]-benzylamino}-5-cyano-N-[(S)-1-(4-fluoro-phenyl)-ethyl]-nicotinamide], the EC50 [1, 3] is reported as 1000 to 10000 nM and the IC50 ([2]; inhibition of PDK1 in vitro) is reported as < 100 nM.
In the case of `NCCNc1nc(-c2ccc(CNc3ncc(C(F)(F)F)cc3C(=O)Nc3ccc(F)cc3)cc2)cnc1N` [Example 194, 2-{4-[5-Amino-6-(2-amino-ethylamino)-pyrazin-2-yl]-benzylamino}-N-(4-fluoro-phenyl)-5-trifluoromethyl-nicotinamide], the EC50 [1, 3] is reported as < 1000 nM and the IC50 ([2]; inhibition of PDK1 in vitro) is reported as < 100 nM.
For `O=C(NCc1ccc(F)c(F)c1)c1cccnc1NCc1csc(-c2ccc3ncnc(NC4CC4)c3c2)n1` [Ex. 6.9, 2-[({2-[4-(cyclopropyl-amino)quinazolin-6-yl)-1,3-thiazol-4-yl}methyl)amino]-N-(3,4-difluorobenzyl) pyridine-3-carboxamide], the EC50 [1, 4] was > 10000 nM and the IC50 [2, 5] was < 100 nM.
For `C[C@H](NC(=O)c1cccnc1NCc1ccc(-c2cnc(N)cn2)cc1)c1ccc(F)c(F)c1` [Example 380, (S)-2-(4-(5-aminopyrazin-2-yl)benzylamino)-N-(1-(3,4-difluorophenyl)ethyl) nicotinamide], the EC50 [1, 3] was 1000 to 10000 nM and the IC50 ([2]; inhibition of PDK1 in vitro) was 100 to 1000 nM.
For `C[C@H](NC(=O)c1cccnc1NCc1ccc(-c2ccc3ncnc(N)c3c2)s1)c1cc(F)cc(F)c1` [Example 3.62, (S)-2-(((5-(4-aminoquinazolin-6-yl)thiophen-2-yl)methyl)amino)-N-(1-(3,5-difluorophenyl)ethyl) nicotinamide (TFA salt)], the EC50 [1, 4] was 1000 to 10000 nM and the IC50 [2, 5] was < 100 nM.
`NCCOc1nc(-c2ccc(CNc3ncc(C(F)(F)F)cc3C(=O)Nc3ccc(F)cc3)cc2)cnc1N` [Example 166, 2-{4-[5-Amino-6-(2-amino-ethoxy)-pyrazin-2-yl]-benzylamino}-N-(4-fluoro-phenyl)-5-trifluoromethyl-nicotinamide] was tested, and the EC50 [1, 3] was < 1000 nM and the IC50 ([2]; inhibition of PDK1 in vitro) was < 100 nM.
In the case of `O=C(NCc1ccc(F)c(F)c1)c1cccnc1NCc1ccccc1-c1c[nH]c2ncccc12` [Example 6.4, N-(3,4-difluorobenzyl)-2-{[2-(1H-pyrrolo[2,3-b]pyridin-3-yl)benzyl]amino}-pyridine-3-carboxamide], the EC50 [1, 4] is reported as > 10000 nM and the IC50 [2, 5] is reported as > 5000 nM.
In the case of `CCC(=O)Nc1cnc(NCc2ccc(-c3ccc4ncnc(N)c4c3)s2)c(C(=O)NCc2ccc(F)c(F)c2)c1` [Example 8.5.2, 2-({[5-(4-aminoquinazolin-6-yl)thiophen-2-yl]methyl}amino)-N-(3,4-difluorobenzyl)-5-(propanoylamino)pyridine-3-carboxamide], the EC50 [1, 4] is reported as 1000 to 10000 nM and the IC50 [2, 5] is reported as < 100 nM.
With `C[C@H](NC(=O)c1cc(C#N)cnc1NCc1ccc(-c2cnc(N)c(C(=O)NCCN(C)C)n2)cc1)c1ccc(F)cc1` [Example 212] the EC50 [1, 3] was < 1000 nM and the IC50 ([2]; inhibition of PDK1 in vitro) was < 100 nM.
`C[C@H](NC(=O)c1cccnc1NCc1ccc(-c2ccc3ncnc(N)c3c2)s1)c1ccc(F)cn1` [Example 3.66, 2-({[5-(4-aminoquinazolin-6-yl)thiophen-2-yl]methyl}amino)-N-[(1S)-1-(5-fluoropyridin-2-yl)ethyl] pyridine-3-carboxamide (TFA salt)] showed an EC50 [1, 4] of 1000 to 10000 nM and an IC50 [2, 5] of 100 to 1000 nM.
`Cc1[nH]c(/C=C2\C(=O)Nc3cc(/C=C/CNc4ncccc4C(=O)NCc4ccc(F)c(F)c4)ccc32)c(C)c1C(=O)N1CCOCC1` [Example 15.18, N-(3,4-Difluoro-benzyl)-2-((E)-3-{3-[1-[3,5-dimethyl-4-(morpholine-4-carbonyl)-1H-pyrrol-2-yl]-meth-(Z)-ylidene]-2-oxo-2,3-dihydro-1H-indol-6-yl}-allylamino)-nicotinamide] was tested, and the EC50 [1, 4] was < 1000 nM and the IC50 [2, 5] was < 100 nM.
With `CC(C)Nc1ncnc2ccc(-c3ccc(CNc4ncccc4C(=O)NCc4ccc(F)c(F)c4)s3)cc12` [Example 4.12, N-(3,4-difluorobenzyl)-2-(((5-(4-(isopropylamino)quinazolin-6-yl)thiophen-2-yl)methyl)amino)nicotinamide] the EC50 [1, 4] was 1000 to 10000 nM and the IC50 [2, 5] was < 100 nM.
Compound `CC(C)Oc1cc(CNc2ncccc2C(=O)NCC2CC2)cc(-c2c[nH]c3ncc(C(=O)NC4CC4)cc23)c1` [Example 4.1.11, N-cyclopropyl-3-{3-[({3-[(cyclopropylmethyl)carbamoyl]pyridin-2-yl}amino)methyl]-5-(propan-2-yloxy)phenyl}-1H-pyrrolo[2,3-b] pyridine-5-carboxamide] has an EC50 [1, 4] of 1000 to 10000 nM and an IC50 [2, 5] of 100 to 1000 nM.
With `C[C@H](NC(=O)c1cc(C#N)cnc1NCc1ccc(-c2cnc(N)c(C(=O)NC3CC3)n2)cc1)c1ccc(F)cc1` [Example 218, (S)-3-amino-6-(4-((5-cyano-3-(1-(4-fluorophenyl)ethylcarbamoyl)pyridin-2-ylamino)methyl)phenyl)-N-cyclopropylpyrazine-2-carboxamide] the EC50 [1, 3] was < 1000 nM and the IC50 ([2]; inhibition of PDK1 in vitro) was < 100 nM.
With `CC[C@H](NC(=O)c1cccnc1NCc1ccc(-c2ccc3ncnc(N)c3c2)s1)c1ccc(F)cc1` [Example 3.43, (S)-2-((5-(4-aminoquinazolin-6-yl)thiophen-2-yl)methylamino)-N-(1-(4-fluorophenyl)propyl) nicotinamide (TFA salt)] the EC50 [1, 4] was 1000 to 10000 nM and the IC50 [2, 5] was 100 to 1000 nM.
For `CC(C)n1cc(-c2ccc(CNc3ncc(C(F)(F)F)cc3C(=O)Nc3ccc(F)cc3)cc2)c2c(N)ncnc21` [Example 442, 2-(4-(4-amino-7-isopropyl-7H-pyrrolo[2,3-d]pyrimidin-5-yl)benzylamino)-N-(4-fluorophenyl)-5-(trifluoromethyl)nicotinamide], the EC50 [1, 3] was < 1000 nM and the IC50 [2, 5] was < 100 nM.
`C[C@H](NC(=O)c1cc(C#N)cnc1NCc1ccc(-c2cnc(N)c(C(=O)O)c2)cc1)c1ccc(F)cc1` [Example 148, (S)-2-amino-5-(4-((5-cyano-3-(1-(4-fluorophenyl)ethylcarbamoyl)pyridin-2-ylamino)methyl)phenyl) nicotinic acid] was tested, and the EC50 [1, 3] was > 10000 nM and the IC50 ([2]; inhibition of PDK1 in vitro) was < 100 nM.
Work on `CNc1ncc2cc(O[C@H](C)CNc3ncc(C#N)nc3C(=O)N[C@@H](C)c3ccc(F)c(F)c3)ccc2n1` [Example 252, 6-cyano-N-((S)-1-(3,4-difluorophenyl)ethyl)-3-((R)-2-(2-(methylamino)quinazolin-6-yloxy)propylamino)pyrazine-2-carboxamide] yielded an EC50 ([1]; PC-3, 2 h, inhibition of P308 Akt in PC-3 cells using MSD) of 1000 to 10000 nM and an IC50 ([2]; inhibition of PDK1 in vitro) of 100 to 1000 nM.
For `O=C(NCc1ccc(F)c(F)c1)c1cccnc1NCc1ccc(-c2ccn3ncnc3c2)s1` [Example 8.14.4, N-(3,4-difluorobenzyl)-2-({[5-([1,2,4]triazolo [1,5-a]pyridin-7-yl)thiophen-2-yl]methyl}amino)pyridine-3-carboxamide], the EC50 [1, 4] was > 10000 nM and the IC50 [2, 5] was 1000 to 5000 nM.
In the case of `C[C@H](NC(=O)c1cc(C(F)(F)F)cnc1NC/C=C/c1ccc2c(c1)NC(=O)/C2=C\c1cnc[nH]1)c1ccc(F)c(F)c1` [Example 15.2, 2-((E)-3-((Z)-3-((1H-imidazol-5-yl)methylene)-2-oxoindolin-6-yl)allylamino)-N-((S)-1-(3,4-difluorophenyl)ethyl)-5-(trifluoromethyl)nicotinamide], the EC50 [1, 4] is reported as < 1000 nM and the IC50 [2, 5] is reported as 100 to 1000 nM.
